System: cells
Test: Cell cycle analysis (G2/M arrest)
Type: cell-based
Details: single substances; no data given

Compound: N=C(N)c1ccc(OCCCCCOc2ccc(C(=N)N)cc2)cc1 [pentamidine]
- effect on the cell cycle: maintain cells in the G2/M cell cycle

From patent US8110583B2, “Tetrahydroquinoline derivatives” (Merck Patent GmbH, priority 2005, dated 2012)
